Experimental data: US9937210B2, “Method for isolating fraction having anti-inflammatory or osteoarthritis-inhibiting effects by using oyster shell chips” (Seojin Biotech Co., Ltd., priority 2012, dated 2018)
Where “and” joins values, the source holds several entries; their conditions need not be identical. Equal entries are not always repeated.

Tests used:
[1] = tested on: animal models of osteoarthritis C57BL/6J mouse; assay: Osteoarthritis index (histopathology, method of Rudolphi) in papain-induced osteoarthritis; assay type: in vivo
Protocol: (§1) 40 eight week-old animal models of osteoarthritis C57BL/6J mouse were purchased from Central Laboratory Animal Inc. (Seoul, Korea), adapted with a general diet for 1 week and then used in the experiments. The temperature and humidity of the breeding room were maintained at 20±2° C., 50±10%, the lightening conditions were such that the light was turned on and off every 12 hours and the light was kept on from 07:00˜19:00. During the experiment, the feedstuff (Orient Bio, Seoul, Korea) and water were to be freely taken.
(§2) The osteoarthritis was induced by the method given in the test guidelines of the effect of the herbal preparation presented by the Korean Food and Drug Administration. Papain (type IV, double crystallized, 15 units/mg, Sigma, USA) was adjusted to a concentration of 1.0% (w/v) in which 0.03 ML-cystein HCl (Sigma, USA) was supplemented for the activation of papain and then passed through the patellar ligament. […] 6 was administered in the right knee joint to induce osteoarthritis.
The experiment animals were adapted in a lab environment for 1 week and then the body weight was measured. Eight animals were assigned to each group to have even body weight. In the normal group, the physiological saline 6 was injected in the right knee joint and then the physiological saline 0.2 ml was orally administered once a day for 20 days. In the treated groups, i.e., a control group, a drug-administered group and a fraction 3-administered group, papain 6 was injected in the right knee joint to induce osteoarthritis. The physiological saline in the control group, Diclofenac sodium (DS, 2 mg/kg/bw) in the drug-administered group, and 100 mg/kg/bw {below, called “fraction 3 (100)”} and 200 mg/kg/bw {below, called “fraction 3 (200)”} in the fraction 3-administered group of Example 2 were orally administered once daily at a predetermined time for 20 days.
All subjects were lightly anesthetized with ether at the experiment end day to take a heart blood sample. The blood was centrifuged to isolate a serum. Immediately after taking a heart blood sample, the right hip joint and ankle joint were isolated and removed so as not to damage the knee joint. The tibial of the right knee joint was fixed in 10% neutral formalin solution for 24 hours and then used for the visual observation of the joints.
The osteoarthritis index for the observed histopathological lesions in the articular cartilage and synovial membrane was digitalized in accordance with a method of Rudolphi, at al. and is shown in Table 2 below.

[2] = tested on: animal models of osteoarthritis C57BL/6J mouse; assay: Visual observation of knee joint cartilage surface in papain-induced osteoarthritis; assay type: in vivo; settings: DS 2 mg/kg/bw; fraction 3 100 and 200 mg/kg/bw; oral once daily 20 days
Protocol: as §1, §2
The experiment animals were adapted in a lab environment for 1 week and then the body weight was measured. Eight animals were assigned to each group to have even body weight. In the normal group, the physiological saline 6 was injected in the right knee joint and then the physiological saline 0.2 ml was orally administered once a day for 20 days. […]

TNF-α = TNF-α content in blood, ELISA, papain-induced arthritis; assay type: in vivo, mouse; settings: DS 2 mg/kg/bw; fraction 3 100 and 200 mg/kg/bw; oral once daily 20 days
Protocol: The experiment animals were adapted in a lab environment for 1 week and then the body weight was measured. Eight animals were assigned to each group to have even body weight. In the normal group, the physiological saline 6 was injected in the right knee joint and then the physiological saline 0.2 ml was orally administered once a day for 20 days. In the treated groups, i.e., a control group, a drug-administered group and a fraction 3-administered group, papain 6 was injected in the right knee joint to induce osteoarthritis. The physiological saline in the control group, Diclofenac sodium (DS, 2 mg/kg/bw) in the drug-administered group, and 100 mg/kg/bw {below, called “fraction 3 (100)”} and 200 mg/kg/bw {below, called “fraction 3 (200)”} in the fraction 3-administered group of Example 2 were orally administered once daily at a predetermined time for 20 days. All subjects were lightly anesthetized with ether at the experiment end day to take a heart blood sample. The blood was centrifuged to isolate a serum. […] The contents of tumor necrosis factor-α (TNF-α), interleukin-1β (IL-1β) and interleukin-6 (IL-6) were measured using enzyme-linked immunosorbent assay (ELISA) kit, respectively. The effect of fraction 3 of the inflammatory cytokine TNF-α produced in large quantities in animals where arthritis was induced by injection of papain, was measured by ELISA method.

IL-1β = assay: Interleukin-1β content in blood, ELISA, papain-induced arthritis; assay type: in vivo, mouse; settings: DS 2 mg/kg/bw; fraction 3 100 and 200 mg/kg/bw; oral once daily 20 days; p<0.05
Protocol: The experiment animals were adapted in a lab environment for 1 week and then the body weight was measured. Eight animals were assigned to each group to have even body weight. In the normal group, the physiological saline 6 was injected in the right knee joint and then the physiological saline 0.2 ml was orally administered once a day for 20 days. In the treated groups, i.e., a control group, a drug-administered group and a fraction 3-administered group, papain 6 was injected in the right knee joint to induce osteoarthritis. The physiological saline in the control group, Diclofenac sodium (DS, 2 mg/kg/bw) in the drug-administered group, and 100 mg/kg/bw {below, called “fraction 3 (100)”} and 200 mg/kg/bw {below, called “fraction 3 (200)”} in the fraction 3-administered group of Example 2 were orally administered once daily at a predetermined time for 20 days. All subjects were lightly anesthetized with ether at the experiment end day to take a heart blood sample. The blood was centrifuged to isolate a serum. […] The contents of tumor necrosis factor-α (TNF-α), interleukin-1β (IL-1β) and interleukin-6 (IL-6) were measured using enzyme-linked immunosorbent assay (ELISA) kit, respectively. The effect of fraction 3 of the inflammatory cytokine IL-1β produced in large quantities in animals where arthritis was induced by injection of papain was measured by ELISA method.

IL-6 = assay: Interleukin-6 content in blood, ELISA, papain-induced arthritis; assay type: in vivo, mouse; settings: DS 2 mg/kg/bw; fraction 3 100 and 200 mg/kg/bw; oral once daily 20 days
Protocol: The experiment animals were adapted in a lab environment for 1 week and then the body weight was measured. Eight animals were assigned to each group to have even body weight. In the normal group, the physiological saline 6 was injected in the right knee joint and then the physiological saline 0.2 ml was orally administered once a day for 20 days. In the treated groups, i.e., a control group, a drug-administered group and a fraction 3-administered group, papain 6 was injected in the right knee joint to induce osteoarthritis. The physiological saline in the control group, Diclofenac sodium (DS, 2 mg/kg/bw) in the drug-administered group, and 100 mg/kg/bw {below, called “fraction 3 (100)”} and 200 mg/kg/bw {below, called “fraction 3 (200)”} in the fraction 3-administered group of Example 2 were orally administered once daily at a predetermined time for 20 days. All subjects were lightly anesthetized with ether at the experiment end day to take a heart blood sample. The blood was centrifuged to isolate a serum. Immediately after taking a heart blood sample, the right hip joint and ankle joint were isolated and removed so as not to damage the knee joint. […] The contents of tumor necrosis factor-α (TNF-α), interleukin-1β (IL-1β) and interleukin-6 (IL-6) were measured using enzyme-linked immunosorbent assay (ELISA) kit, respectively.

[3] = Papain + DS 2 mg/kg/bw oral once daily 20 days, group mean
[4] = Papain + DS 2 mg/kg/bw oral once daily 20 days, individual animals 1-8

SMILES: O=C(O)Cc1ccccc1Nc1c(Cl)cccc1Cl [DS, Diclofenac sodium]
- osteoarthritis index compared with the papain-administered control group ([1]; DS 2 mg/kg/bw, fraction 3 100 and 200 mg/kg/bw, oral once daily 20 days, p<0.05): significantly lower
- Cellularity score, Mean [1, 3]: 2.0
- Matrix structure score, Mean [1, 3]: 2.6
- Subchondral bone score, Mean [1, 3]: 1.1
- Synovial membrane score, Mean [1, 3]: 1.5
- Sum of osteoarthric score, Mean ([1]; Papain + DS 2 mg/kg/bw oral once daily 20 days, group mean, papain control 19.8): 7.4
- Cellularity score, per subject [1, 4]: 2
- Matrix structure score, per subject [1, 4]: 1 (3×) and 3 (4×) and 6
- Subchondral bone score, per subject [1, 4]: 3 (3×) and 0 (5×)
- Sum of osteoarthric score, per subject [1, 4]: 6 (2×) and 4 and 11 (2×) and 5 and 8 (2×)
- Synovial membrane score, per subject [1, 4]: 0 (3×) and 1 and 3 (4×)
- visual appearance of knee joint cartilage surface compared with papain-administered group [2]: the scope of the discoloration was less and the elimination of visual cartilage surface was not observed
- TNF-α content in blood compared with papain-administrated control group (TNF-α): significantly lower
- IL-1β content in blood compared with papain-administrated control group (IL-1β): significantly lower
- IL-6 content in blood compared with papain-administrated control group (IL-6): significantly lower
